# Test results: patent US20230137849A1, “USE OF A COMPOUND OF THE DIURETICS CLASS FOR TREATING CANCER” (AZELEAD, priority 2017, published 2023)
# How the values were obtained:
# MDA-MB-231 cells = assay: Cytotoxicity potentiation test: MTT cell viability of MDA-MB-231 cells, doxorubicin +/- althiazide; format: cell-based, human
# Experimental: The cell cultures are carried out on human breast cancer epithelial cell lines MDA-MB-231 (HTB-26™), resulting from metastases present in a pleural effusion of a patient with a mammary adenocarcinoma. This line is used as a triple negative cancer cell model (no expression of ER-type nuclear estrogen receptors, nuclear progesterone receptors or overexpression of the oncogene encoding HER2 protein (Human Epidermal Growth factor Receptor-2).
# The cell viability is determined via the IC50 index, measured by the MTT technique (2-(4,5-dimethyl-2-thiazolyl)-3,5-diphenyl-2H-tetrazolium bromide) (Mosmann, 1983). This colorimetric test is based on the reduction of yellow tetrazolium salts into insoluble purple formazan crystals in aqueous solution. The spectrophotometric measurement of the absorbance at 570 nm is directly proportional to the number of viable cells
# The cells were seeded in 96-well plates at a density of 25,000 cells per well. After 24 h of culture at 37° C., 5% CO2 and 1% O2, the medium was renewed and supplemented with increasing doses of doxorubicin+/−althiazide. Cells were incubated for 24 h at 37° C., 5% CO2 and 1% O2. The MDA-MB-231 cells were washed and then incubated for 1 hour at 37° C. with 100 μl of a 0.5 mg/ml MTT solution prepared in culture medium. The formazan crystals were dissolved in […] and the absorbance measured at 570 nm using the Tecan Sunrise spectrophotometer. The IC50 was determined using the Graphpad Prism 5.0 software. The treatments were carried out in triplicate and the manipulation was carried out 5 times.
# The tests are carried out in cell culture in 96-well plates, on the cell line MDA-MB-231. The MDA-MB-231 cells are seeded in 96-well plates at a density of 10,000 cells and incubated 24 h at 37° C., 5% CO2 and 1% O2. The medium is then renewed and added with increasing concentrations of doxorubicin+/−100 μM althiazide. The cells are incubated for an additional 24 hours at 37° C., 5% CO2 and 1% O2. Treatments were made in triplicas and the experiment was repeated 5 times.
# A cell viability test is then performed according to the method described in Materials and methods.
# Results are normalized to the control condition (FIG. 12)
# 4T1 cells = assay: 4T1 cell migration test (scratch test); format: cell-based, mouse; settings: lowest concentration 10 nM, t=24 h, FIG. 8
# Experimental: The cell migration assays on the 4T1 cell line are carried out in vitro in 12-well plates on the 4T1 cell line. The cells are maintained in DMEM culture medium supplemented with 10% calf serum (FCS) and incubated at 37° C. and 5% CO2. The cell monolayer is injured with a 10 μ pipette tip. The medium is aspirated and replaced by a medium containing the compounds to be tested at the concentrations described. The wells are imaged using a microscope and the injured surface is repaired at the indicated times to highlight the cell anti-migratory power of the tested chemical compounds. The average of the measurements obtained is compared with the control wells: (average value of the compounds treated/average value of the controls)*100=% of the average value.
# In order to validate the anti-migratory potential of althiazide, we carry out a “scratch test” on 4T1 cells in culture according to the cell migration test protocol on the 4T1 cell line described in the Materials and Methods section. This test is used to evaluate the migratory power of a chemical compound on cells in culture. […]
# The area of the injured area is measured for each well and the percentage of migration is calculated under each condition.
smiles,measurement,setting,value
C=CCSCC1Nc2cc(Cl)c(S(N)(=O)=O)cc2S(=O)(=O)N1 (racemic) [althiazide],reduction of the IC50 of doxorubicin,"MDA-MB-231 cells; 100 μM althiazide added to doxorubicin, 24 h, 1% O2",45%
same,increase of the effects of doxorubicin,"MDA-MB-231 cells; 100 μM althiazide, doxorubicin between 25 and 2.5 μM, FIG. 12",about 15%
same,decrease in cell migration,4T1 cells,40%
